Source: the supplement of paper PMC13380429

Experiments:
Details in all cases: 72 h
Vero E6 [1] = assay: drug sensitivity score (DSS) for viability; higher = more toxic; extreme values may be limits of the assay
HepG2 [2] = assay: as above
U2OS [3] = assay: as above
Calu-3 [4] = assay: as above
Caco-2 [5] = assay: as above
Vero E6 [6] = assay: cell viability relative to DMSO; higher = less toxic
HepG2 [7] = assay: as above
U2OS [8] = assay: as above
Calu-3 [9] = assay: as above
Caco-2 [10] = assay: as above
Vero E6 [11] = assay: relative viability EC50 (midpoint between 100% and the lowest measured viability); higher = less toxic
HepG2 [12] = assay: as above
U2OS [13] = assay: as above
Calu-3 [14] = assay: as above
Caco-2 [15] = assay: as above

| Structure (SMILES) | drug sensitivity score (Vero E6 [1]) | drug sensitivity score (HepG2 [2]) | drug sensitivity score (U2OS [3]) | drug sensitivity score (Calu-3 [4]) | drug sensitivity score (Caco-2 [5]) | cell viability (Vero E6 [6]; 1 nM) | cell viability (Vero E6 [6]; 10 nM) | cell viability (Vero E6 [6]; 100 nM) | cell viability (Vero E6 [6]; 1000 nM) | cell viability (Vero E6 [6]; 10000 nM) | cell viability (HepG2 [7]; 1 nM) | cell viability (HepG2 [7]; 10 nM) | cell viability (HepG2 [7]; 100 nM) | cell viability (HepG2 [7]; 1000 nM) | cell viability (HepG2 [7]; 10000 nM) | cell viability (U2OS [8]; 1 nM) | cell viability (U2OS [8]; 10 nM) | cell viability (U2OS [8]; 100 nM) | cell viability (U2OS [8]; 1000 nM) | cell viability (U2OS [8]; 10000 nM) | cell viability (Calu-3 [9]; 1 nM) | cell viability (Calu-3 [9]; 10 nM) | cell viability (Calu-3 [9]; 100 nM) | cell viability (Calu-3 [9]; 1000 nM) | cell viability (Calu-3 [9]; 10000 nM) | cell viability (Caco-2 [10]; 1 nM) | cell viability (Caco-2 [10]; 10 nM) | cell viability (Caco-2 [10]; 100 nM) | cell viability (Caco-2 [10]; 1000 nM) | cell viability (Caco-2 [10]; 10000 nM) | relative viability EC50 (Vero E6 [11]) | relative viability EC50 (HepG2 [12]) | relative viability EC50 (U2OS [13]) | relative viability EC50 (Calu-3 [14]) | relative viability EC50 (Caco-2 [15]) |
| --- | --- | --- | --- | --- | --- | --- | --- | --- | --- | --- | --- | --- | --- | --- | --- | --- | --- | --- | --- | --- | --- | --- | --- | --- | --- | --- | --- | --- | --- | --- | --- | --- | --- | --- | --- |
| O=[N+]([O-])c1cc(Cl)ccc1S(=O)(=O)c1ccccc1 [BTB1] | 0 | 0 | 0 | 0 | 0 | 97% | 94.4% | 93.9% | 97.9% | 101% | 99.2% | 103% | 82.7% | 88.1% | 108% | 98.5% | 95.4% | 102% | 103% | 102% | 97.1% | 98.2% | 107% | 103% | 115% | 95.8% | 90.2% | 97.5% | 98.6% | 100% | > 10 µM | > 10 µM | > 10 µM | > 10 µM | > 10 µM |
| O=C(O)c1ccc(CN2CCC(CN[C@@H]3C[C@H]3c3ccccc3)CC2)cc1 | 0 | 0 | 0 | 0 | 0 | 100% | 103% | 99.2% | 90.9% | 95.2% | 105% | 93.8% | 104% | 92.5% | 92% | 95.9% | 96.8% | 95.8% | 98.3% | 96% | 89.3% | 101% | 94.7% | 102% | 103% | 101% | 108% | 94% | 105% | 102% | > 10 µM | > 10 µM | > 10 µM | > 10 µM | > 10 µM |
| COc1cc(C)nc(-n2nc(C)cc2OC)n1 [epirizole] | 0 | 0 | 0 | 0 | 0 | 112% | 99.3% | 110% | 105% | 94.9% | 103% | 96.7% | 105% | 94% | 97.8% | 95.1% | 101% | 94.8% | 99.8% | 97% | 91.9% | 92.2% | 88.3% | 97.3% | 86% | 83.5% | 92.7% | 82.3% | 97.4% | 89% | > 10 µM | > 10 µM | > 10 µM | > 10 µM | > 10 µM |
| C[C@@H]1C[C@H]2[C@@H]3C[C@H](F)C4=CC(=O)C=C[C@]4(C)[C@@]3(Cl)[C@@H](O)C[C@]2(C)[C@H]1C(=O)COC(=O)C(C)(C)C [clocortolone-pivalate] | 0 | 0 | 0 | 0 | 0 | 101% | 90.6% | 99.6% | 95.4% | 110% | 98.8% | 93.6% | 99.1% | 103% | 108% | 95.7% | 93% | 90.1% | 90.7% | 93.4% | 92.9% | 88.2% | 102% | 96.2% | 97.3% | 90.6% | 99.2% | 91% | 100% | 112% | > 10 µM | > 10 µM | > 10 µM | > 10 µM | > 10 µM |
| COCCNC(=O)Cn1cnc([N+](=O)[O-])n1 [sanazole] | 0 | 0 | 0 | 0 | 0 | 99.5% | 99.1% | 95.7% | 101% | 96.6% | 103% | 93.3% | 102% | 95.7% | 97.6% | 98.3% | 104% | 96.7% | 97.7% | 95.8% | 96.7% | 106% | 97.6% | 102% | 103% | 93% | 99.6% | 95.9% | 93.9% | 93.4% | > 10 µM | > 10 µM | > 10 µM | > 10 µM | > 10 µM |
| CC[C@H](C)[C@@H]1NC(=O)[C@H](Cc2ccc(OC)cc2)NC(=O)CCCSC[C@@H](C(=O)N2CCC[C@H]2C(=O)N[C@@H](CC(C)C)C(=O)NCC(N)=O)NC(=O)[C@H](CC(N)=O)NC(=O)[C@H](CCC(N)=O)NC1=O [carbetocin] | 0 | 0 | 0 | 0.6 | 0.3 | 104% | 104% | 99.3% | 101% | 95.8% | 103% | 103% | 91.3% | 99.7% | 93.3% | 94.9% | 91.3% | 98.4% | 95.2% | 100% | 103% | 104% | 102% | 106% | 75.7% | 99.7% | 98.6% | 97.3% | 90.5% | 87.4% | > 10 µM | > 10 µM | > 10 µM | > 10 µM | > 10 µM |
| O=C1c2ccccc2C(=O)C1c1ccc(Br)cc1 [bromindione] | 0 | 0 | 0 | 0 | 0 | 102% | 103% | 103% | 104% | 99.4% | 103% | 103% | 107% | 108% | 99.5% | 104% | 99.7% | 102% | 96.5% | 102% | 107% | 93.8% | 103% | 95.6% | 106% | 105% | 70.7% | 95.6% | 80.8% | 96.3% | > 10 µM | > 10 µM | > 10 µM | > 10 µM | > 10 µM |
| CCN(CC)CCNC(=O)c1cc(Br)c(N)cc1OC [bromopride] | 0 | 0 | 0 | 0 | 0 | 95.9% | 100% | 92.9% | 99.8% | 104% | 94.6% | 102% | 99% | 105% | 101% | 101% | 99.1% | 105% | 99.4% | 101% | 102% | 99% | 95.8% | 104% | 111% | 89.7% | 96.1% | 97.4% | 94.6% | 102% | > 10 µM | > 10 µM | > 10 µM | > 10 µM | > 10 µM |
| OCC(CO)N[C@H]1C[C@](O)(CO)[C@@H](O)[C@H](O)[C@H]1O [voglibose] | 0 | 0 | 0 | 0 | 0 | 97% | 95.1% | 94.3% | 93.8% | 104% | 98.2% | 108% | 102% | 100% | 111% | 103% | 100% | 100% | 98.2% | 97.5% | 97.8% | 106% | 98.4% | 101% | 108% | 94.4% | 102% | 93.7% | 98% | 106% | > 10 µM | > 10 µM | > 10 µM | > 10 µM | > 10 µM |
| Cc1cc(OCCN2CCOCC2)nn1-c1ccc2ccccc2c1 [API-001] | 0 | 0 | 0 | 0 | 0 | 96.3% | 96% | 91.9% | 94.8% | 103% | 102% | 111% | 89.9% | 102% | 103% | 98.2% | 98.5% | 102% | 101% | 102% | 98.5% | 83.4% | 107% | 115% | 96.7% | 93.2% | 91.8% | 96.4% | 94.1% | 92% | > 10 µM | > 10 µM | > 10 µM | > 10 µM | > 10 µM |
| O=C(O)c1c2ccccc2cc2ccccc12 [9-anthracenecarboxylic-acid] | 0 | 0 | 0 | 0 | 0 | 98.4% | 97.1% | 98% | 94.7% | 103% | 101% | 90.5% | 102% | 104% | 102% | 100% | 100% | 101% | 101% | 103% | 97.1% | 97.9% | 99.4% | 101% | 96% | 93.1% | 95.8% | 95% | 100% | 105% | > 10 µM | > 10 µM | > 10 µM | > 10 µM | > 10 µM |
| COc1ccc2[nH]c([S+]([O-])Cc3ncc(C)c(OC)c3C)nc2c1 (stereo not given) [omeprazole] | 0 | 0 | 0 | 0 | 0 | 98.5% | 106% | 102% | 107% | 103% | 102% | 96.6% | 99.4% | 99.5% | 97% | 106% | 98.4% | 101% | 104% | 98.6% | 115% | 94.3% | 103% | 104% | 113% | 104% | 92.2% | 103% | 99% | 95% | > 10 µM | > 10 µM | > 10 µM | > 10 µM | > 10 µM |
| COc1ccccc1OCC(O)CN1CCN(CC(=O)Nc2c(C)cccc2C)CC1 (stereo not given) [ranolazine] | 0 | 0 | 0 | 0 | 0 | 90.5% | 97.3% | 89.5% | 90.7% | 104% | 97.5% | 97.9% | 93% | 96.7% | 102% | 98.6% | 93.4% | 102% | 96.1% | 102% | 95% | 91.8% | 102% | 105% | 105% | 100% | 96.9% | 106% | 99.2% | 99.1% | > 10 µM | > 10 µM | > 10 µM | > 10 µM | > 10 µM |
| COc1ccc(S(=O)(=O)Nc2nc(-c3cccc([N+](=O)[O-])c3)cs2)cc1OC [Ro-61-8048] | 0 | 0 | 0 | 0 | 0 | 101% | 97.2% | 85.1% | 102% | 97.9% | 107% | 86.1% | 101% | 102% | 106% | 98.6% | 93.5% | 99.4% | 100% | 106% | 107% | 89.5% | 103% | 97.9% | 124% | 133% | 90.8% | 110% | 124% | 95.8% | > 10 µM | > 10 µM | > 10 µM | > 10 µM | > 10 µM |
